# From patent publication US9249163B2, “PDE10a inhibitors for the treatment of type II diabetes” (Janssen Pharmaceutica, NV, priority 2013, dated 2016)
# Structures can show the parent of a compound that is named as a salt.
# What was measured:
# [1] = molecular target: Human recombinant PDE10A2 (Homo sapiens (Human), UniProt Q9Y233); assay: In vitro hPDE10a (human recombinant PDE10A2, scintillation proximity assay); type: biochemical; details: human recombinant PDE10A2, 60 nM cAMP, 60 min at room temperature; read-out: hPDE10a2 IC50
# Human recombinant PDE10A2, sequence (Q9Y233 267-1055): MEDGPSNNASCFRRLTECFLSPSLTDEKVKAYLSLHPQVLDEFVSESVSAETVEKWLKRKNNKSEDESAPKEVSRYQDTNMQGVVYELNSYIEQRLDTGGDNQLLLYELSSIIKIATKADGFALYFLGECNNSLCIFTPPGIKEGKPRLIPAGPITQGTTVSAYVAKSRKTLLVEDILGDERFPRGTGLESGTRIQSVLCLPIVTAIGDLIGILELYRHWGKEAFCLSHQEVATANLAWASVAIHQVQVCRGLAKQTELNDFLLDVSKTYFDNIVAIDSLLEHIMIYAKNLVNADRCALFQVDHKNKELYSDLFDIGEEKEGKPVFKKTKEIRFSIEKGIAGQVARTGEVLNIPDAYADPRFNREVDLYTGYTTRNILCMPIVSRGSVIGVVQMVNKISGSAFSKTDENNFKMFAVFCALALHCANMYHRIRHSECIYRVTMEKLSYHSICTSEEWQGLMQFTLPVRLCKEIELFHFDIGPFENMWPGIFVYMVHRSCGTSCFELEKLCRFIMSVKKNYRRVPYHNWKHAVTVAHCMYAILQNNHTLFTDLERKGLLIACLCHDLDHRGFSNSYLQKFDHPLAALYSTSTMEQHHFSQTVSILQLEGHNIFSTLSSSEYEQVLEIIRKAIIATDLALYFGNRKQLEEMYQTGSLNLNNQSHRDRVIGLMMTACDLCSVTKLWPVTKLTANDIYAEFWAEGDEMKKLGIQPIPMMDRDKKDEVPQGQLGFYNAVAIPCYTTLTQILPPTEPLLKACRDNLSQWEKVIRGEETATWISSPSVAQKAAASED
# Experimental: Human recombinant PDE10A2 was expressed in Sf9 cells, using a recombinant baculovirus construct containing the full length sequence containing a 6×His sequence following the start Met to allow metal affinity purification of the recombinant protein. Cells were harvested and the phosphodiesterase protein was purified by metal chelate chromatography on Ni-sepharose 6FF.
# The affinity of the compounds of Formula (I) for phophodiesterases (PDE) was measured by a scintillation proximity assay (SPA). PDE Yttrium Silicate SPA beads allow PDE activity to be measured by direct binding of the primary phosphate groups of non-cyclic AMP or GMP to the beads via a complex iron chelation mechanism. The amount of bound tritiated product ([^3H]-AMP) is measured by liquid scintillation counting.
# The compounds were dissolved and diluted in 100% DMSO in polystyrene plates to a concentration of 100-fold the final concentration in the assay. Human PDE10A enzyme solution (10 μL) was added to 20 μL, of incubation buffer (50 mM Tris pH 7.8, 8.3 mM MgCl2, 1.7 mM EGTA), 10 μL, substrate solution consisting of a mixture of non-tritiated and tritiated substrate (60 nM cAMP, 0.008 μCi ^3H-cAMP), and 0.4 μL, compound in 100% DMSO in a 384-well plate, and incubated for 60 min at room temperature. After incubation, the reaction was stopped with 20 μL, of stop solution, consisting of PDE SPA beads (17.8 mg beads/mL in 18 mM zinc sulphate). After sedimentation of the beads for 30 min, the radioactivity was measured in a Perkin Elmer Topcount scintillation counter and results were expressed as cpm. To measure the low control, no enzyme was added to the reaction mixture.
# Data were calculated as the percentage of inhibition of total activity measured in the absence of test compound (% control).
# [2] = molecular target: Rat recombinant PDE10a (rPDE10a) (Rattus norvegicus (Rat), UniProt Q9QYJ6); assay: In vitro assay PDE10a (rat recombinant PDE10a, SPA); type: biochemical; details: 60 nM cAMP, 60 min at rt, read-out: rPDE10a2 IC50
# Rat recombinant PDE10a (rPDE10a), sequence (Q9QYJ6 whole entry): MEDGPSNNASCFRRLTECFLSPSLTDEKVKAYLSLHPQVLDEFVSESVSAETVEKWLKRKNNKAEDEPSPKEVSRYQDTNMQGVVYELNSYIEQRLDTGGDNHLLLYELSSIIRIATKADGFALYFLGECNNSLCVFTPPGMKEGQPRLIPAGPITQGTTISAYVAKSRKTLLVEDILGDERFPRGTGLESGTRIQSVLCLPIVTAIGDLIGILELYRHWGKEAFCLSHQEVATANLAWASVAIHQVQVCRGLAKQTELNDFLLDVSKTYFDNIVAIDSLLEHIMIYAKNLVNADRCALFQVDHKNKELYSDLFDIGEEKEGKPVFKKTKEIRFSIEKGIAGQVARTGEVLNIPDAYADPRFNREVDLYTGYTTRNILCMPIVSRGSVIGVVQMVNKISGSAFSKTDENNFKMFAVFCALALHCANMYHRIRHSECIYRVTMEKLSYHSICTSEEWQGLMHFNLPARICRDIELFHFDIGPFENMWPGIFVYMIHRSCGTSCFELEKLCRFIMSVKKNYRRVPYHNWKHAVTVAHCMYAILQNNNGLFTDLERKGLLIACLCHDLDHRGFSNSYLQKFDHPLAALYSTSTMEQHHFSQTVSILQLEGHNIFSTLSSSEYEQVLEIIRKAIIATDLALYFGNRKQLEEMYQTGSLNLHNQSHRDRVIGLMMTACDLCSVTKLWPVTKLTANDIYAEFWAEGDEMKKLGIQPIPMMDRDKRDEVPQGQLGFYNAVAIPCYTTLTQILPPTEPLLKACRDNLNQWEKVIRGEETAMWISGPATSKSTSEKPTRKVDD
# Experimental: Rat recombinant PDE10a (rPDE10a) was expressed in Sf9 cells using a recombinant rPDE10a baculovirus construct. Cells were harvested after 48 h of infection and the rPDE10a protein was purified by metal chelate chromatography on Ni-sepharose 6FF. Tested compounds were dissolved and diluted in 100% DMSO to a concentration 100 fold of the final concentration in the assay. Compound dilutions (0.4 μL) were added in 384 well plates to 20 μL of incubation buffer (50 mM Tris pH 7.8, 8.3 mM MgCl2, 1.7 mM EGTA). 10 μL of rPDE10a enzyme in incubation buffer was added and the reaction was started by addition of 10 μL substrate to a final concentration of 60 nM cAMP and 0.008 μCi ^3H-cAMP. The reaction was incubated for 60 min at rt. After incubation, the reaction was stopped with 20 μL of 17.8 mg/mL PDE SPA beads. After sedimentation of the beads during 30 min the radioactivity was measured in a Perkin Elmer Topcount scintillation counter and results were expressed as cpm. For blank values the enzyme was omitted from the reaction and replaced by incubation buffer. Control values were obtained by addition of a final concentration of 1% DMSO instead of compound.
IC50 [1],IC50 [2],Structure (SMILES)
31 nM,46 nM,"O=C(NCCO)Nc1ccc(-c2cnc(N3CCOCC3)c3nc(/C=C/c4ccc5ccccc5n4)cn23)cc1 [Cpd 72, (E)-1-(2-Hydroxyethyl)-3-(4-(8-morpholino-2-(2-(quinolin-2-yl)vinyl)imidazo[1,2-a]pyrazin-5-yl)phenyl)urea]"
155 nM,98 nM,"Cc1cc(S(=O)(=O)NC(C)C)ccc1-c1cnc(N2CCOCC2)c2nc(/C=C/c3ccc4ccccc4n3)cn12 [Cpd 49, (E)-N-isopropyl-3-methyl-4-(8-morpholino-2-(2-(quinolin-2-yl)vinyl)imidazo[1,2-a]pyrazin-5-yl)benzenesulfonamide]"
5 nM,13 nM,"CC(C)[C@H](NC(=O)c1ccc(-c2cnc(N3CCOCC3)c3nc(CCc4ccc5ccccc5n4)cn23)cc1)C(=O)O [Cpd 34, (S)-3-Methyl-2-(4-(8-morpholino-2-(2-(quinolin-2-yl)ethyl)imidazo[1,2-a]pyrazin-5-yl)benzamido)butanoic acid trifluoroacetic acid salt]"
18 nM,15 nM,"CN1C(=O)Nc2ccc(-c3cnc(N4CCOCC4)c4nc(/C=C/c5ccc6ccccc6n5)cn34)cc2S1(=O)=O [Cpd 19, (E)-2-Methyl-7-(8-morpholino-2-(2-(quinolin-2-yl)vinyl)imidazo[1,2-a]pyrazin-5-yl)-2H-benzo[e][1,2,4]thiadiazin-3(4H)-one 1,1-dioxide]"
34 nM,15 nM,"Cn1nc(-c2ccc(-c3cnc(N4CCOCC4)c4nc(/C=C/c5ccc6ccccc6n5)cn34)cc2)[nH]c1=O [Cpd 47, (E)-2-Methyl-5-(4-(8-morpholino-2-(2-(quinolin-2-yl)vinyl)imidazo[1,2-a]pyrazin-5-yl)phenyl)-2H-1,2,4-triazol-3(4H)-one]"
8 nM,26 nM,"CN1C(=O)N(C)S(=O)(=O)c2cc(-c3cnc(N4CCOCC4)c4nc(/C=C/c5ccc6ccccc6n5)cn34)ccc21 [Cpd 20, (E)-2,4-Dimethyl-7-(8-morpholino-2-(2-(quinolin-2-yl)vinyl)imidazo[1,2-a]pyrazin-5-yl)-2H-benzo[e][1,2,4]thiadiazin-3(4H)-one 1,1-dioxide]"
2 nM,2 nM,"O=C(O)c1cncc(-c2cnc(N3CCOCC3)c3nc(/C=C/c4ccc5ccccc5n4)cn23)c1 [Cpd 27, (E)-5-(8-Morpholino-2-(2-(quinolin-2-yl)vinyl)imidazo[1,2-a]pyrazin-5-yl)nicotinic acid]"
2 nM,3 nM,"CS(=O)(=O)NC(=O)c1cncc(-c2cnc(N3CCOCC3)c3nc(/C=C/c4ccc5ccccc5n4)cn23)c1 [Cpd 25, (E)-N-(Methylsulfonyl)-5-(8-morpholino-2-(2-(quinolin-2-yl)vinyl)imidazo[1,2-a]pyrazin-5-yl)nicotinamide]"
24 nM,15 nM,"O=C(O)CNc1ccc(-c2cnc(N3CCOCC3)c3nc(/C=C/c4ccc5ccccc5n4)cn23)cc1 [Cpd 29, (E)-2-(4-(8-Morpholino-2-(2-(quinolin-2-yl)vinyl)imidazo[1,2-a]pyrazin-5-yl)phenylamino)acetic acid trifluoroacetic acid salt]"
8 nM,3 nM,"Oc1nc2ncc(-c3cnc(N4CCOCC4)c4nc(/C=C/c5ccc6ccccc6n5)cn34)cc2[nH]1 [Cpd 94, (E)-6-(8-Morpholino-2-(2-(quinolin-2-yl)vinyl)imidazo[1,2-a]pyrazin-5-yl)-3H-imidazo[4,5-b]pyridin-2-ol]"
9 nM,9 nM,"O=C(O)CCNc1ccc(-c2cnc(N3CCOCC3)c3nc(/C=C/c4ccc5ccccc5n4)cn23)cc1 [Cpd 22, (E)-3-(4-(8-Morpholino-2-(2-(quinolin-2-yl)vinyl)imidazo[1,2-a]pyrazin-5-yl)phenylamino)propanoic acid trifluoroacetic acid salt]"
91 nM,132 nM,"O=c1[nH]ncn1-c1ccc(-c2cnc(N3CCOCC3)c3nc(/C=C/c4ccc5ccccc5n4)cn23)cc1 [Cpd 58, (E)-4-(4-(8-morpholino-2-(2-(quinolin-2-yl)vinyl)imidazo[1,2-a]pyrazin-5-yl)phenyl)-1H-1,2,4-triazol-5(4H)-one]"
9 nM,12 nM,"CC(=O)NS(=O)(=O)c1ccc(-c2cnc(N3CCOCC3)c3nc(COc4ccc5ccccc5n4)cn23)cc1 [Cpd 88, N-((4-(8-Morpholino-2-((quinolin-2-yloxy)methyl)imidazo[1,2-a]pyrazin-5-yl)phenyl)sulfonyl)acetamide]"

# The next lines start with the compound.
Structure (SMILES),IC50 [1],IC50 [2]
"NC(=O)c1ccc(-c2cnc(N3CCOCC3)c3nc(COc4ccc5ccccc5n4)cn23)cn1 [Cpd 84, 5-(8-Morpholino-2-((quinolin-2-yloxy)methyl)imidazo[1,2-a]pyrazin-5-yl)picolinamide]",16 nM,8 nM
"c1ccc2nc(CCc3cn4c(-c5ccc(Sc6cnn[nH]6)cc5)cnc(N5CCOCC5)c4n3)ccc2c1 [Cpd 36, 4-(5-(4-((1H-1,2,3-triazol-5-yl)thio)phenyl)-2-(2-(quinolin-2-yl)ethyl)imidazo[1,2-a]pyrazin-8-yl)morpholine]",17 nM,23 nM
"Cn1nc(-c2ccc(-c3cnc(N4CCOCC4)c4nc(CCc5ccc6ccccc6n5)cn34)cc2)[nH]c1=O [Cpd 33, 1-Methyl-3-[4-[8-(morpholin-4-yl)-2-[2-(quinolin-2-yl)ethyl]imidazo[1,2-a]pyrazin-5-yl]phenyl]-4,5-dihydro-1H-1,2,4-triazol-5-one]",21 nM,23 nM
"c1ccc2nc(OCc3cn4c(-c5ccc(N6CCNCC6)nc5)cnc(N5CCOCC5)c4n3)ncc2c1 [Cpd 124, 4-(5-(6-(Piperazin-1-yl)pyridin-3-yl)-2-((quinazolin-2-yloxy)methyl)imidazo[1,2-a]pyrazin-8-yl)morpholine trifluoroacetic acid salt]",115 nM,123 nM
"c1ccc2nc(OCc3cn4c(-c5ccc(C6CCNCC6)nc5)cnc(N5CCOCC5)c4n3)ccc2c1 [Cpd 106, 4-(5-(6-(Piperidin-4-yl)pyridin-3-yl)-2-((quinolin-2-yloxy)methyl)imidazo[1,2-a]pyrazin-8-yl)morpholine trifluoroacetic acid salt]",89 nM,15 nM
"c1ccc2nc(OCc3cn4c(-c5ccc(N6CCNCC6)nc5)cnc(-c5ccncc5)c4n3)ccc2c1 [Cpd 120, 2-((5-(6-(Piperazin-1-yl)pyridin-3-yl)-8-(pyridin-4-yl)imidazo[1,2-a]pyrazin-2-yl)methoxy)quinoline trifluoroacetic acid salt]",20 nM,15 nM
"C(=C\c1ncccn1)/c1cn2c(-c3ccc(N4CCNCC4)nc3)cnc(N3CCOCC3)c2n1 [Cpd 103, (E)-4-(5-(6-(Piperazin-1-yl)pyridin-3-yl)-2-(2-(pyrimidin-2-yl)vinyl)imidazo[1,2-a]pyrazin-8-yl)morpholine]",676 nM,617 nM
"CN1CCN(c2ccc(-c3cnc(N4CCOCC4)c4nc(COc5ccc6ccccc6n5)cn34)cn2)CC1 [Cpd 130, 4-(5-(6-(4-Methylpiperazin-1-yl)pyridin-3-yl)-2-((quinolin-2-yloxy)methyl)imidazo[1,2-a]pyrazin-8-yl)morpholine]",42 nM,16 nM
"C(=C\c1cn2c(-c3ccc(N4CCNCC4)nc3)cnc(C3CCOCC3)c2n1)/c1ccc2ccccc2n1 [Cpd 80, (E)-2-(2-(5-(6-(piperazin-1-yl)pyridin-3-yl)-8-(tetrahydro-2H-pyran-4-yl)imidazo[1,2-a]pyrazin-2-yl)vinyl)quinoline trifluoroacetic acid salt]",617 nM,562 nM
"O=C(O)[C@@H]1CCCN1C(=O)c1ccc(-c2cnc(N3CCOCC3)c3nc(CCc4ccc5ccccc5n4)cn23)cc1 [Cpd 35, (S)-1-(4-(8-Morpholino-2-(2-(quinolin-2-yl)ethyl)imidazo[1,2-a]pyrazin-5-yl)benzoyl)pyrrolidine-2-carboxylic acid trifluoroacetic acid salt]",7 nM,12 nM
